# Measurements published in patent US20220008376A1, “INHIBITORS OF TYPE 3 SECRETION SYSTEM AND ANTIBIOTIC THERAPY” (priority 2018, published 2022).
# Where two headings read alike, the source gives them in different places.
# How the values were obtained:
# [1] = test system: PAO1; experiment: Bacterial burden in bronchoalveolar lavage and lung histopathology, PAO1-infected mice; type: in vivo, C57BL/6J mice
# Source text: (§1) Animal studies. 6-week-old female C57BL/6J mice used in this study were acquired from the Experimental Animal Center of Xian Jiaotong University. All the animals were maintained in animal care facilities in the School of Life Science and Technology, and provided with food and water ad libitum. The animal studies were approved by the Committee on Animal Research and Ethics, Xi'an Jiaotong University.
# C57BL/6J mice were lightly anesthetized with inhaled sevoflurane and infected by intranasal instillation of PAO1 (1×10^7 CFU in 20 μL PBS) after lightly anesthetized with inhaled sevoflurane. Tanshinone inhibitors were administrated to the animals along with bacterial inoculation (100 μM, 1% DMSO). PBS containing 1% DMSO was used as mock treatment. 18 hours after infection, animals were sacrificed and bronchoalveolar lavages were collected and plated to obtain the bacterial counts in the lavages. The lungs of sacrificed mice were then isolated and fixed in 10% buffered formalin, paraffin embedded and hematoxylin-eosin-stained for histopathological examination. Pathological scores of the tissues were assigned according to the degree of inflammation.
# [2] = biological target: T1, PscE-PscG heterodimer (Pseudomonas aeruginosa, UniProt P95435); type: binding; design: made in house; host or cells: total chemical synthesis (solid phase peptide synthesis and native chemical ligation), no expression host; settings: FP competition with FAM-PscF69-85 for PscE-PscG
# Description: Fluorescence polarization (FP) and FP-based competitive binding assays. All fluorescence polarization assays were done using black, low protein binding 96-well plates (Thermo Fisher Scientific) in a total volume of 100 μl per well of 10 mM Tris buffer containing 150 mM NaCl and 1 mM EDTA, pH 7.0, unless indicated otherwise. After a gentle mixing and incubation for 3 h, FP readings were taken at 470 nm (excitation) and 530 nm (emission) wavelengths on a Tecan Infinite M2000 fluorescence plate reader. Nonlinear regression analyses were performed to give rise to Kd and IC50 values as previously described.
# For direct binding of PscF to PscG or PscE-PscG, equal volumes of FAM-PscF^69-85 (400 nM) and serially diluted PscG or PscE-PscG (0-64 μM) were mixed. For initial screening, 95 μl of FAM-PscF^69-85-PscE-PscG (100 nM) in the assay buffer was mixed with 5 μl of small molecule inhibitor in DMSO to a final molar concentration of 1, 10, 100, or 1000 μM. 5% DMSO and 6 M GuHCl in the final assay buffer were used as negative and positive controls, respectively. For secondary screening or competitive binding assays, 95 μl of FAM-PscF^69-85-PscE-PscG (100 nM) in the assay buffer was mixed with 5 μl of serially diluted PscF^69-85 or various tanshinone analogs (0-200 μM).
# Target sequence in this assay (P95435 1-114): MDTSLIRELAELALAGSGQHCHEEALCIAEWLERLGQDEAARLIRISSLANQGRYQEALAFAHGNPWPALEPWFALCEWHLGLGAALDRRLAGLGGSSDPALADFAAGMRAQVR
# Target sequence in this assay (Q9I317 whole entry, further chain): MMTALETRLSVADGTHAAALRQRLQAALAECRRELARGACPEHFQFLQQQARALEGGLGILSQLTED
# [3] = test system: secretion of ExoS by PAO1; experiment: Inhibition of T3SS-mediated effector secretion (ExoS Western blot); type: cell-based, Pseudomonas aeruginosa; settings: PAO1 under low-calcium conditions; for inhibition of ExoS secretion: 100 μM
# Description: Inhibition of T3SS-mediated effector secretion. For T3SS induction, PAO1 overnight cultures were diluted to an OD at 600 nm of 0.3 in LB containing 5 mM EGTA and 20 mM MgCl2, in the presence of tanshinone inhibitors ([…]), followed by an incubation with mild agitation of additional 3-4 hours until the cultures reached an OD value of 1.5. NC group were cultured in LB and 2% DMSO, PC group were cultured in LB containing 5 mM EGTA, 20 mM MgCl2 and 2% DMSO. Culture supernatant was collected by centrifugation at 4000 g for 15 min at 4° C. and secreted proteins were concentrated by adding ice-cold trichloroacetic acid to a final concentration of 10% (V/V). Following a 2 hours' incubation on ice, the pellets were washed twice with cold acetone and suspended in an SDS-PAGE sample buffer (with 2-mercaptoethanol) according to the BCA protein assay protocol. Secreted and total proteins (supernatant and pelleted bacteria) were analyzed by immunoblotting with an anti-ExoS antibody (Agrisera, AS05056, at 1:4000 dilution) and corresponding HRP-conjugated secondary antibody. The blots were semi-quantified using ImageJ 1.51 k (from http://imagej.nih.gov/ij). The results were expressed as the mean±SD percentage of secreted ExoS out of total ExoS of three independent experiments.
# [4] = test system: intracellular PAO1 in J774A.1 cells; settings: different concentrations, gentamicin at 2 h post infection
# Description: Quantification of bacterial internalization. 5×10^4 J774a cells were seeded into each well of a 24-well plate and grown for 24 h before infection. One hour before the infection, cell culture medium was changed into serum-free medium and PAO-1 from mid-exponential phase was added to the cells at a multiplicity of infection (MOI) of 8. In the presence of different concentration of tanshinone inhibitors (0-100 μM compound, 2% DMSO), bacteria/cells mixtures were incubated for 2 hours and washed, then treated with gentamicin-containing (50 μg/ml) medium for another 2 hours before being lysed for plating. Internalized bacteria were defined as the total number of intracellular bacteria in cells (extracellular bacteria were killed by gentamicin, a cell-impermeable antibiotic). Results were normalized against the intracellular bacteria number by PAO-1-infected cells with mock treatment (2% DMSO). Average results of three independent experiments are shown as mean±SD.
# [5] = biological target: T2, PscF^69-85-PscE-PscG complex (Pseudomonas aeruginosa, UniProt P95435); experiment: CD spectroscopy and thermal denaturation of the heterotrimer; settings: for effect on helicity of the heterotrimeric complex: CD, 20 μM heterotrimer, 25° C., 10 mM phosphate buffer, pH 7.4
# T2 construct: made in house; host or cells: total chemical synthesis (solid phase peptide synthesis and native chemical ligation), no expression host
# Description: Circular dichroism (CD) spectroscopy and thermal denaturation. […] Protein thermal denaturation was carried out in PBS using a JASCO circular dichroism spectrometer equipped with temperature controller. […] Under constant stirring, measurement was taken at one-degree interval between 25° C. and 90° C., at a heating rate of 1° C. per minute. After each 1-minute heating, the solution in the cuvette was waited for 20 s before signals were detected over a 16 s period. Heating and data acquisition were fully automated with the control software provided by JASCO. Data processing was performed as previously described.
# [6] = test system: cytotoxicity of PAO1 to murine macrophages (J774A.1); experiment: Cytoplasmic lactate dehydrogenase (LDH) release assay, PAO1-infected macrophages; type: cell-based, mouse; settings: for inhibition of Pseudomonas aeruginosa-induced cell lysis (LDH release), words: different concentrations, MOI 8, 5 hours; for EC50: Mus musculus
# Source text: Cytoplasmic lactate dehydrogenase (LDH) release assay. […] LDH released into supernatant was detected by LDH detection kit (Beyotime, C0017) as instructed by the manufacturer.
# [7] = test system: PAO1; experiment: Survival study, murine model of acute pneumonia; type: in vivo, C57BL/6J mice; settings: for mice died of infection within 48 h, first treatment 8 h after challenge: mock-treated 85%
# Description: as §1
# For survival study, tanshinone inhibitors (100 μM, 1% DMSO, in 10 μL PBS) were administrated to the infected animals intranasally at the time of infection, or 8 h after infection, and every 12 hours till the death of the animal or the end of the experiment. PBS containing 1% DMSO was used as mock treatment.
# [8] = biological target: T1, PscE-PscG heterodimer; experiment: 15N-1H HSQC NMR of 15N-PscG-PscE with dHTSN1; type: binding; design: inferred from the Ni-NTA purification; made in house; host or cells: PscG: E. coli (15N MOPS medium); PscE: chemical synthesis; settings: molar ratio 1:1:1
# Description: PscG was uniformly labeled with ^15N MOPS medium containing 1 g/L ^15NH4Cl as the sole source and BME vitamins (Sigma, USA). Cells were harvested by centrifugation at 6000 g for 30 min, resuspended in a lysis buffer containing 6 M urea, and subjected to a 1-min sonication, followed by two-cycle homogenization at 4° C. The lysates were centrifuged at 20,000 rpm for 30 min, and the supernatant was loaded onto a 10 ml Ni-NTA agarose column (Qiagen, USA). The elute was concentrated to 10-12 ml under denaturation conditions, followed by purification on a Sep-Pak C18 column. Peak fractions containing ^15N-PscG were lyophilized. […] The mixtures were dialyzed against the same buffer overnight and then concentrated to ˜300 μl.
# All NMR samples were prepared in an NMR buffer containing 20 mM sodium phosphate (pH 7.4), 100 mM NaCl, 0.1% NaN3, 10% D2O and 2 mM DTT. The final protein concentrations were approximately 26 μM and 47.8 μM for ^15N-PscG-PscE and ^15N-PscG-PscE-dHTSN1 complexes, respectively. All NMR spectra were collected at 25° C. on a Bruker Avance 700 MHz spectrometer equipped with a triple-resonance pulse-field gradient probe. ^15N-^1H HSQC NMR spectra were recorded in the echo-antiecho mode for quadrature detection. All datasets were acquired with 2048 complex points in t2 and 256 complex points in t1.
# Target sequence in this assay (Q9I317 whole entry): as the sequence (Q9I317 whole entry, further chain) above
# Target sequence in this assay (P95435 whole entry): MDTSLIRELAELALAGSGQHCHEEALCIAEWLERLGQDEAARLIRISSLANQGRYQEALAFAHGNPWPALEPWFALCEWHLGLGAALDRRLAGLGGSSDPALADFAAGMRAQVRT
# [9] = first intranasal dose 8 h after PAO1
# [10] = J774.A1, read-out: EC50, LDH release normalized against PAO1 ΔpscC
# [11] = J774.A1, normalized against mock-treated PAO1-infected cells, read-out: EC50, inhibition of PAO1 cytotoxicity to macrophages (LDH release)
# T2 sequence (Q9I317 whole entry): as the sequence (Q9I317 whole entry, further chain) above
# T2 sequence (P95435 2-115): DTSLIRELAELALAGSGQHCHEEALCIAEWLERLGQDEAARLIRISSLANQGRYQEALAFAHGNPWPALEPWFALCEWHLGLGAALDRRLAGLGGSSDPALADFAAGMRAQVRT
SMILES,activity in FP competition assay [2],"inhibition of Pseudomonas aeruginosa-induced cell lysis (LDH release), words [6]","mice died of infection within 48 h, first treatment 8 h after challenge [7, 9] [%]",inhibition of ExoS secretion [3],"EC50 [6, 10] [µM]","EC50 [6, 11] [µM]",further results
"CC(Oc1ccc(Cl)cc1Cl)C(=O)NCc1ccc2c(c1)OCO2 (stereo not shown) [MBX-1641, reference compound]",no effect,–,–,–,–,–,"bacterial burden in bronchoalveolar lavage ([1]; single dose 100 μM at time of infection, sampled 18 h post infection): reduced bacterial burden; inhibition of ExoS secretion (MBX-1641) ([3]; 6.25 μM): inhibited; inhibition of intracellular bacterial survival / proliferation of PAO1 in macrophages [4]: inhibited"
"Cc1coc2c1C(=O)C(=O)c1c-2ccc2c(C)cccc12 [TSN1, tanshinone 1]",–,inhibited Pseudomonas aeruginosa-induced cell lysis in a dose dependent manner,40,–,–,–,"effect on helicity of the heterotrimeric complex [5]: reduced; effect on helicity of the heterotrimeric complex ([5]; listed as tanshinone 1): progressively decreases; effect on thermal stability of the heterotrimeric complex ([5]; added to preformed heterotrimer PscE-PscG-PscF^69-85): reduced; Tm of PscF^69-85-PscE-PscG complex in presence of compound ([5]; complex 20 μM in PBS, 300 μM tanshinone 1, CD at 222 nm, 54.8 in absence): 52.3 °C; protection of infected mice, treatment from time of infection ([7]; 100 μM intranasal at time of infection and every 12 h): significantly protective"
"C[C@H]1COC2=C1C(=O)C(=O)c1c2ccc2c1CCCC2(C)C [crpTSN, cryptotanshinone, reference compound]",inactive,inactive,–,no inhibitory activity,–,–,–
"Cc1cccc2c3c(ccc12)C1=C(C(=O)C3=O)[C@@H](C)CO1 [dHTSN1, dihydrotanshinone 1]",–,inhibited Pseudomonas aeruginosa-induced cell lysis in a dose dependent manner,5,more active than TSN1,~3,25,"lung inflammation, H&E staining ([1]; 18 h post infection): significantly reduced inflammation; infected mice survived beyond 96 h, first treatment 8 h after challenge [7, 9]: 80%; interaction with 15N-PscG-PscE complex by NMR [8]: relatively strong interactions"
Cc1cccc2c3c(ccc12)C(=O)C1=C(OC[C@H]1C)C3=O [dHTSN],–,inhibited Pseudomonas aeruginosa-induced cell lysis in a dose dependent manner,20,more active than TSN1,~3,12.5,–
Cc1coc2c1C(=O)C(=O)c1c-2ccc2c1CCCC2(C)C [tanshinone 2A],inactive,–,–,–,–,–,–
